Source: article PMC10094648, “Short, Lipidated Dendrimeric γ-AApeptides as New Antimicrobial Peptidomimetics” (International Journal of Molecular Sciences, 2023)
Where two headings read alike, the source gives them in different places.

Assays:
Human red blood cells [1] = settings: red cells of human, 1 h
Experimental: (§10) Human red blood cells were washed with 1 × PBS buffer, then centrifuged at 700 g for 10 min. After discarding the top clear solution, the bottom cells were diluted to obtain 5% solution using 1 × PBS buffer.
(§11) Then, 50 μL of cell solution was injected into 96-well plates. Following this, 50 μL of synthesized compounds with different concentrations from 250 to 1.95 μg/mL were added into 96-well plates. Then, the mixture was incubated for 1 h at 37 °C. After centrifuging at 3500× g rpm for 10 min, 30 μL of the supernatant was transferred into a new 96-well plate with 100 μL of 1 × PBS buffer. With the same microplate reader, the data of absorbance at 540 nm were compared. Positive control: 2% Triton-100. Calculation formula: percentage of hemolysis = [(Absorbance of sample-Absorbance of PBS)/(Absorbance of Triton-Absorbance of PBS)] × 100

Human red blood cells [2] = experiment: Hemolytic activity; settings: HC50 over MIC against MRSA
Experimental: as §10, §11

E. coli (ATCC 25922) = type: cell-based; settings: ATCC 25922, 16 h
Experimental: (§1) Chemical reagents and solvents were bought from Sigma Aldrich, Oakwood, TCI, and Chem-Impex. Final products were purified with Waters Breeze 2 HPLC and lyophilized using Labconco lyophilizer. HPLC traces of the final product were collected using 5–95% acetonitrile in water with 0.1% HPLC-grade TFA for at least 40 min. The nuclear magnetic resonance (NMR) data were collected using the Agilent 600 MHz NEO instrument. High-resolution mass spectra of compounds (Table S1) were collected using an Agilent Technologies 6540 UHD accurate-mass Q-TOF LC/MS spectrometer. Antibacterial assays and mechanism of action studies were performed using a Biotec multimode microplate reader synergy H4. Six different species of bacteria were used for bacteria assay tests, such as MRSA (ATCC 33591), MRSE (RP62A), VREF (ATCC 700802), E. coli (ATCC 25922), K. pneumoniae (ATCC 13383), and P. aeruginosa (ATCC 27853).
(§2) Concisely, E. coli, K. pneumoniae, P. aeruginosa, MRSA, MRSE, and VREF were cultivated in 37 °C TSB medium for 16 h. Subsequently, 4 ml of new TSB medium was added to 100 μL of cultivated bacterial solution and incubated for another 6 h to reach the mid-log phase. Next, 96-well plates were injected with 50 μL of bacterial solution that reached mid-log phase and 50 μL of compounds with different concentrations, which ranged from 0.75–25 μg/mL. Then, the 96-wells plates were incubated for another 16 h at 37 °C. After 16 h, MICs were determined by a multimode microplate reader.

[3] = system: K. pneumoniae (ATCC 13383); type: cell-based; settings: ATCC 13383, 16 h
Experimental: as §1, §2

[4] = system: P. aeruginosa (ATCC 27853); type: cell-based; settings: ATCC 27853, 16 h
Experimental: as §1, §2

MRSE (RP62A) = type: cell-based; settings: 16 h
Experimental: as §1, §2

E.F. (VREF, ATCC 700802) = type: cell-based; settings: ATCC 700802, 16 h
Experimental: as §1, §2

MRSA (ATCC 33591) = type: cell-based, methicillin-resistant Staphylococcus aureus
Experimental: as §1, §2

E. coli [5] = experiment: Outer membrane (OM) permeabilization (NPN uptake); type: cell-based; settings: 1 × MIC, compared with 1% Triton
From the text: Next, using E. coli as a microorganism, we evaluated the OM permeabilization of YW-1. In aqueous conditions, 1-N-Phenylnaphthylamine (NPN) is blocked by the cell wall. However, if the OM is permeabilized, and NPN is taken up as a result, the fluorescence intensity will increase, compared to non-treated OM [13].

MRSA [6] = experiment: Fluorescence microscopy (DAPI / PI staining); type: cell-based, methicillin-resistant Staphylococcus aureus; settings: 2 × MIC, 2 h at 37 °C, PI channel
Experimental: (§3) To further assess that the bacteria were killed with YW-1 by comprising the cell membrane, we conducted a fluorescence microscopy experiment. Two dyes, 4′,6-diamidino-2-phenylindole (DAPI) and propidium iodide (PI), were employed in this experiment. […] Instead, DAPI can be used to stain both dead and live cells because it is cell-permeable.
(§4) A total of 30 μL of mid-log phase bacterial solution was diluted to 3 mL in TSB medium with 2 × MIC of YW-1. The mixture was incubated for 2 h at 37 °C. Following this, the bacterial solution was centrifuged at 3000 rpm for 10 min. The top solution was thrown away, the bottom bacterial pellets were washed with PBS buffer, and PI (5 μg/mL) and DAPI (10 μg/mL) were added sequentially on ice under a dark environment. After dyeing with PI and DAPI, the bacterial cells were washed with PBS buffer. Immediately after 100 μL of PBS was added to suspend the bacterial cell, 10 μL of the suspended solution was dropped onto the slide, and data were obtained using a Zeiss Axiovert 200 inverted microscope.

E. coli [7] = experiment: Transmission electron microscopy (TEM); type: cell-based; settings: 2 × MIC, 2 h
Experimental: (§5) TEM microscopy offers convenient access to check the intactness of cell membranes. The cell membranes of MRSA and E. coli were intact.
(§6) An amount of 30 μL of mid-log phase MRSA and E. coli was diluted to 3 mL in TSB medium with 2 × MIC of YW-1, and the mixture was incubated for 2 h. The bacterial pellets were centrifuged at 3000× g rpm for 10 min. For the next step, PBS buffer was used to wash three times. Then, the suspended bacterial samples were dropped on grids and dried in a vacuum oven at 45 °C. TEM images were obtained using a FEI Morgagni 268D TEM, with an Olympus MegaView III CAMERA on the microscope, at 60 kV.

MRSA [8] = experiment: Drug resistance study (serial passages); type: cell-based, methicillin-resistant Staphylococcus aureus; settings: after 14 generations
Experimental: Since the abuse of antibiotics, antibacterial drug resistance has become an increasingly serious threat. Thus, it is of great importance to assess the drug resistance of newly developed lead compounds.
The first generation of MIC data of YW-1 against MRSA and E. coli was already obtained in an MIC study. Then, the MRSA of the first generation in the well next to the last clear well was diluted to the mid-log phase, and MICs were tested at 37 °C. This step was repeated for 14 passages. The data of drug resistance for E. coli were obtained using the same method with bacterial E. coli.

E. coli [9] = experiment: Membrane depolarization study (diSC35 dye); type: cell-based
From the text: (§7) To probe the mechanism of antibacterial activity, we first carried out a membrane depolarization study with the membrane potential-sensitive dye 3,3′-dipropylthiadicarbocyanine iodide (diSC35) (Figure 2A,B). […] However, if the membrane is disrupted, and the fluorophore is released from the membrane, fluorescence will improve dramatically.

E. coli [10] = experiment: Inner membrane (IM) permeabilization (ONPG hydrolysis assay); type: cell-based; settings: 8 × MIC, 4 × MIC, 2 × MIC and 1 × MIC, 37 °C
Experimental: We next used the o-nitrophenyl-β-d-galactopyranoside (ONPG) hydrolysis assay to test the ability of the lead compound YW-1 to permeabilize the inner membrane of Gram-negative bacteria (Figure 3B). If the lead compound YW-1 compromised the bacterial inner membrane, ONPG would interact with the cytoplasmic enzyme β-galactosidase to form o-nitrophenol, which can be measured under OD 420 nm.
Mid-log phase E. coli was obtained in Mueller Hinton Broth with 2% lactose at 37 °C; then, it was centrifuged at 3000× g rpm for 10 min at 4 °C and washed with 20 mM glucose and 1.5 mM ONPG in […] HEPES buffer one time. Next, the bacterial solution was diluted until OD600 = 0.1 using the same buffer. Following this, 50 μL of diluted bacterial solution was injected into a 96-well plate, and 50 μL of YW-1 in different concentrations and melittin were injected into the bacterial solution, respectively. The OD420 was read at 37 °C every 6 min until the […] reached the highest plateau.

MRSA [11] = experiment: Time-kill kinetics study; type: cell-based, methicillin-resistant Staphylococcus aureus; settings: 4 × MIC and 8 × MIC, TSB medium
Experimental: (§8) To evaluate how rapidly bacteria could be eradicated, the lead compound YW-1 was examined for its ability to eradicate MRSA and E. coli by studying the time-kill kinetics.
(§9) Different concentrations of YW-1 and ciprofloxacin were mixed with 300 μL of mid-log phase bacterial solution in TSB medium. The mixture was incubated for 0, 10, and 30 min and 1 and 2 h, respectively. At the time, E. coli were diluted 100-fold, and the MRSA was diluted 100-fold. A total of 100 μL of each was transferred on TSB agar plates. After 16 h at 37 °C, CFUs were read using the Biotec multimode microplate reader.

MRSA [12] = experiment: Transmission electron microscopy (TEM); type: cell-based, methicillin-resistant Staphylococcus aureus; settings: 2 × MIC, 2 h
Experimental: as §5, §6

MRSA [13] = experiment: Membrane depolarization study (diSC35 dye); type: cell-based, methicillin-resistant Staphylococcus aureus
From the text: as §7

E. coli [14] = experiment: Fluorescence microscopy (DAPI / PI staining); type: cell-based; settings: 2 × MIC, 2 h at 37 °C, PI channel
Experimental: as §3, §4

E. coli [15] = experiment: Time-kill kinetics study; type: cell-based; settings: 4 × MIC and 8 × MIC, TSB medium
Experimental: as §8, §9

[16] = TSB medium, 16 h at 37 °C, compounds 0.75–25 μg/mL, microplate reader

Structure (SMILES)	HC50 (Human red blood cells [1])	Selectivity Index (HC50/MICMRSA) (Human red blood cells [2])	MIC, Gram-Negative (−), E. coli (E. coli (ATCC 25922))	MIC, Gram-Negative (−), K.P. [3]	MIC, Gram-Negative (−), P.A. [4]	MIC, Gram-Positive (+), MRSE (MRSE (RP62A))	MIC, Gram-Positive (+), E.F. (E.F. (VREF, ATCC 700802))	MIC, Gram-Positive (+), MRSA (MRSA (ATCC 33591); [16])	MIC, Gram-Positive (+), MRSA (MRSA (ATCC 33591); ATCC 33591, 16 h)	other results
CCCCCCCCCCCCCCCC(=O)N[C@@H](CCCCNC(=N)N)CN(CC(N)=O)C(=O)CCN(C[C@@H](N)CCCCN)C(=O)CCN [YW-7]	>125 µg/mL	>83.3	3.0 to 6.0 µg/mL	>25 µg/mL	12.5 to 25 µg/mL	3.0 to 6.0 µg/mL	3.0 to 6.0 µg/mL	0.75 to 1.5 µg/mL		
CCCCCCCCCCCCCCCC(=O)N[C@@H](CC(C)C)CN(CC(N)=O)C(=O)CCN(C[C@@H](N)CCCCN)C(=O)CCN [YW-1]	>125 µg/mL	>41.7	3.0 to 6.0 µg/mL	12.5 to 25 µg/mL	6 to 12.5 µg/mL	1.5 to 3 µg/mL	1.5 to 3 µg/mL		1.5 to 3 µg/mL	Outer membrane permeability (E. coli [5]): 98%; PI staining (compromised membrane) (MRSA [6]): red fluorescence was observed under the PI channel; membrane intactness by TEM (E. coli [7]): the membranes clearly demonstrated damages; increase in MIC (drug resistance) (MRSA [8]): did not have an obvious change in MIC; fluorescence intensity of diSC35 (membrane depolarization) (E. coli [9]; E. coli treated with different concentrations): dose-dependent increases in fluorescence intensity; fluorescence of diSC35 compared with positive control Triton (E. coli [9]; E. coli, at a two-fold of MIC or above): even more intensive fluorescence than the positive control Triton; inner membrane permeabilization, OD 420 nm intensity (E. coli [10]): enhanced to a great extent; time to remove bacteria thoroughly (MRSA [11]): ≤ 2 h; membrane intactness by TEM (MRSA [12]): the membranes clearly demonstrated damages; fluorescence intensity of diSC35 (membrane depolarization) (MRSA [13]; MRSA treated with different concentrations): dose-dependent increases in fluorescence intensity; fluorescence of diSC35 compared with positive control Triton (MRSA [13]; MRSA, at a two-fold of MIC or above): even more intensive fluorescence than the positive control Triton; PI staining (compromised membrane) (E. coli [14]): red fluorescence was observed under the PI channel; time to remove bacteria thoroughly (E. coli [15]): ≤ 2 h
CCCCCCCCCCCCCCCC(=O)N[C@@H](C)CN(CC(N)=O)C(=O)CCN(C[C@@H](N)CCCCN)C(=O)CCN [YW-3]	>125 µg/mL	>83.3	3.0 to 6.0 µg/mL	>25 µg/mL	6 to 12.5 µg/mL	6 to 12.5 µg/mL	3.0 to 6.0 µg/mL	0.75 to 1.5 µg/mL		
CCCCCCCCCCCCCCCC(=O)N[C@@H](Cc1ccc(O)cc1)CN(CC(N)=O)C(=O)CCN(C[C@@H](N)CCCCN)C(=O)CCN [YW-4]	>125 µg/mL	>83.3	3.0 to 6.0 µg/mL	>25 µg/mL	>25 µg/mL	3.0 to 6.0 µg/mL	3.0 to 6.0 µg/mL	0.75 to 1.5 µg/mL		
CCCCCCCCCCCCCCCC(=O)N[C@@H](Cc1ccccc1)CN(CC(N)=O)C(=O)CCN(C[C@@H](N)CCCCN)C(=O)CCN [YW-2]	>125 µg/mL	>41.7	3.0 to 6.0 µg/mL	6 to 12.5 µg/mL	12.5 to 25 µg/mL	1.5 to 3 µg/mL	1.5 to 3 µg/mL		1.5 to 3 µg/mL	
CCCCCCCCCCCCCCCC(=O)N[C@@H](CCCCN)CN(CC(N)=O)C(=O)CCN(C[C@@H](N)CCCCN)C(=O)CCN [YW-6]	>125 µg/mL	>83.3	6 to 12.5 µg/mL					0.75 to 1.5 µg/mL		
O=C(O)c1cn(C2CC2)c2cc(N3CCNCC3)c(F)cc2c1=O [ciprofloxacin, reference compound]										increase in MIC (drug resistance) (MRSA [8]): about 100 fold
CCCCCCCCCCCCCCCC(=O)N[C@@H](CO)CN(CC(N)=O)C(=O)CCN(C[C@@H](N)CCCCN)C(=O)CCN [YW-5]	>125 µg/mL	>41.7	6 to 12.5 µg/mL						1.5 to 3 µg/mL	
